{"source": "patent US20030119066A1", "about": "“Diagnostic kit for detecting immunogenic response and method of screening” (Novozymes A/S, priority 2001, published 2003)", "key": {"anti-Savinase® antibody": {"tested_on": "anti-Savinase® antibody", "experiment": "ELISA of antibody binding capacity of immobilized peptides with sera raised against different proteins", "parameters": "species or system rabbits, rats, and mice", "conditions": "biotin-linked peptide on streptavidin plates, sera raised against Alcalase, Subtilisin Novo, Carezyme, Laccase, Natalase, SP722, Lipolase (FIG. 1)", "procedure": "The antibody binding capacity of the two linear peptide sequences, RRFANDHTR (light gray bars) and RRFSNATRA (dark gray bars), were tested in an ELISA assay, by measuring optical density, OD. The sequences were tested for binding to antibodies in sera raised against different proteins. The different proteins are marked by capital letters A through H. A=Alcalase®, B=Savinase®, C=Subtilisin Novo®), D=Carezyme®) (cellulase), E=Laccase, F=Natalase® (amylase), G=SP722 (amylase), H=Lipolase® (lipase).\nSpecific IgG and IgE levels were determined using the ELISA specific for human, mouse or rat IgG or IgE. Differences between data sets were analysed by using appropriate statistical methods. The assays were performed as known to the expert.\nThe following sequences were synthezised, and immobilized on biotin, through a linker molecule:\nThe biotin-complex was immobilized in ELISA well plates, pre-coated with streptavidin. If phages were used, these were directly coated into the ELISA plate wells. ELISA was performed as described elsewhere, on sera from rabbits, rats, and mice raised against Alcalase®, Savinase®, and Subtilisin Novo® as well as a number of less relevant proteins.\nIn FIG. 1 the reactivity of the selected peptides in terms of antibody binding capacity is shown (ELISA assay). […]"}, "specific antibodies": {"tested_on": "specific antibodies", "experiment": "Phage display library screening for clones binding specific antibodies", "conditions": "random hexa-, nona- or dodeca peptide phage display library", "from_the_text": "In a particular method, the identification of antibody binding sequences may be achieved by screening a display package library, particularly a phage display library. The principle behind phage display is that a heterologous DNA sequence can be inserted in the gene coding for a coat protein of the phage (WO 92/15679). The phage will make and display the hybrid protein on its surface where it can interact with specific target agents. Such target agent may be antigen-specific antibodies. It is therefore possible to select specific phages that display antibody-binding peptide sequences. […] Thus, by screening for antibody binding, one can isolate the peptide sequences that have sufficiently high affinity for the particular antibody used. The peptides of the hybrid proteins of the specific phages which bind protein-specific antibodies characterize epitopes that are recognized by the immune system.\nFrom a phage display library expressing random hexa-, nona- or dodeca peptides as part of their membrane proteins, specific phage clones were isolated capable of binding specific antibodies. […] The amino acid sequence of the corresponding oligopeptide was deduced from the DNA sequence."}}}
{"substance": "R R F A N D H T R (RRFANDHTR)", "values": [{"measurement": "reactivity (antibody binding capacity, optical density, OD)", "setting": "anti-Savinase® antibody", "value": "Reactivity was observed with anti-Savinase® antibody only"}]}
{"substance": "R R F S N A T R A (RRFSNATRA)", "values": [{"measurement": "reactivity (antibody binding capacity, optical density, OD)", "setting": "anti-Savinase® antibody", "value": "Reactivity was observed with anti-Savinase® antibody only"}]}
{"substance": "VQVYGDTSA", "values": [{"measurement": "antibody binding of phage-displayed peptide", "setting": "specific antibodies", "value": "specific antibody binding peptide"}]}
